Our source for the IC50 values is patent publication US20250009830A1 (priority 2021, published 2025).

Like-named read-outs stand apart in the source and are kept apart here.

Holding throughout (assay): microbe, parasite or virus in culture
Holding throughout (format): cell-based
Common to all, as to settings: read-out: IC50 of the main compounds of EC 3.2

The subject of assay [1] is SARS-CoV-2 Delta.
Assay [2] has as its system SARS-CoV-2 Omicron.
For assay [3], the system named is SARS-CoV-2 Wuhan type (SARS-CoV-2PR-1).
The test system of assay [4] is SARS-CoV-2 Alpha.
The subject of assay [5] is SARS-CoV-2 Gamma.
The test system of assay [6] is SARS-CoV-2 Beta.
The mark [7] stands for this setting: Calu-3, calculated from EC 3.2 IC50 and HPLC analysis (Table 4).
[8] abbreviates: Severe acute respiratory syndrome coronavirus 2, Calu-3, calculated from EC 3.2 IC50 and HPLC analysis (Table 4).

Take `OC[C@H]1O[C@@H](Oc2cc3c(O)cc(O)cc3[o+]c2-c2ccc(O)c(O)c2)[C@H](O)[C@@H](O)[C@@H]1O` [Cyanidin-3-glucoside]: the IC50 in assay [1] (setting [7]) is 82 µM; in assay [2] (setting [7]) it was 82 µM; in assay [3] (setting [7]) it was 41 µM; in assay [4] (setting [7]), 165 µM; in assay [5] (setting [7]), 123 µM; in assay [6] (setting [7]), 123 µM.
As to `C[C@@H]1O[C@@H](OC[C@H]2O[C@@H](Oc3c(-c4ccc(O)c(O)c4)oc4cc(O)cc(O)c4c3=O)[C@H](O)[C@@H](O)[C@@H]2O)[C@H](O)[C@H](O)[C@H]1O` [Rutin], the IC50 in assay [1] (setting [8]) is 34 µM; in assay [2] (setting [8]), 34 µM; in assay [3] (setting [8]) it was 17 µM; in assay [4] (setting [8]), 68 µM; in assay [5] (setting [8]) it was 51 µM; in assay [6] (setting [8]), 51 µM.
For `OC[C@H]1O[C@@H](Oc2cc(O)cc3[o+]c(-c4ccc(O)c(O)c4)c(O[C@@H]4O[C@H](CO)[C@@H](O)[C@H](O)[C@H]4O[C@@H]4OC[C@@H](O)[C@H](O)[C@H]4O)cc23)[C@H](O)[C@@H](O)[C@@H]1O` [Cyanidin-3-sambubioside-5-glucoside], the IC50 was 12 µM in assay [1] (setting [7]); 12 µM in assay [2] (setting [7]); 6 µM in assay [3] (setting [7]); 24 µM in assay [4] (setting [7]); 18 µM in assay [5] (setting [7]); 18 µM in assay [6] (setting [7]).
On to `O=c1c(O[C@@H]2O[C@H](CO)[C@@H](O)[C@H](O)[C@H]2O)c(-c2ccc(O)c(O)c2)oc2cc(O)cc(O)c12` [Isoquercitrin], for which the IC50 in assay [1] (setting [8]) was 2.7 µM; in assay [2] (setting [8]), 2.7 µM; in assay [3] (setting [8]), 1.3 µM; in assay [4] (setting [8]), 5.4 µM; in assay [5] (setting [8]), 4 µM; in assay [6] (setting [8]) it was 4 µM.
Regarding `OC[C@H]1O[C@@H](Oc2cc3c(O)cc(O)cc3[o+]c2-c2ccc(O)c(O)c2)[C@H](O[C@@H]2OC[C@@H](O)[C@H](O)[C@H]2O)[C@@H](O)[C@@H]1O` [Cyanidin-3-sambubioside], the IC50 in assay [1] (setting [7]) is 71 µM; in assay [2] (setting [7]) it was 71 µM; in assay [3] (setting [7]), 35 µM; in assay [4] (setting [7]), 142 µM; in assay [5] (setting [7]), 107 µM; in assay [6] (setting [7]), 107 µM.
As to `O=C(/C=C/c1ccc(O)c(O)c1)O[C@@H]1C[C@](O)(C(=O)O)C[C@@H](O)[C@H]1O` [Chlorogenic acid], the half-inhibitory concentration (IC50) in assay [1] (setting [8]) is 13 µM; in assay [2] (setting [8]), 13 µM; in assay [3] (setting [8]), 6.6 µM; in assay [4] (setting [8]), 27 µM; in assay [5] (setting [8]), 20 µM; in assay [6] (setting [8]), 20 µM.
